Test results reported in the supplement of paper PMC8967900.

Key:
Assay in all cases: selective drug sensitivity score (sDSS, relative to normal bone marrow) (sDSS (score)); higher = more potent and effective on the cell line relative to normal bone marrow cells
Conditions in all cases: 72 h
REH = system: REH
TANOUE = system: TANOUE
JURKAT = system: JURKAT
RPMI-8402 = system: RPMI-8402
MOLT-4 = system: MOLT-4
380 = system: 380
COG-LL-402h = system: COG-LL-402h
CCRF-HSB2 = system: CCRF-HSB2
MOLT-14 = system: MOLT-14
KOPN-8 = system: KOPN-8
MHH-CALL-3 = system: MHH-CALL-3
COG-LL-319h = system: COG-LL-319h
CCRF-CEM = system: CCRF-CEM
ALL-SIL = system: ALL-SIL
PEER = system: PEER
P30-OHKUBO = system: P30-OHKUBO
DND-41 = system: DND-41
KASUMI-2 = system: KASUMI-2
HAL-01 = system: HAL-01
TMD5 = system: TMD5
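Further: ALL cell lines in 384-well plates, five doses spanning 10,000-fold, each plate scaled between vehicle and 100 µmol/L benzalkonium chloride controls, sDSS an adapted area-under-curve metric.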

Row | SMILES | selective drug sensitivity score (REH) | selective drug sensitivity score (TANOUE) | selective drug sensitivity score (JURKAT) | selective drug sensitivity score (RPMI-8402) | selective drug sensitivity score (MOLT-4) | selective drug sensitivity score 380 | selective drug sensitivity score (COG-LL-402h) | selective drug sensitivity score (CCRF-HSB2) | selective drug sensitivity score (MOLT-14) | selective drug sensitivity score (KOPN-8) | selective drug sensitivity score (MHH-CALL-3) | selective drug sensitivity score (COG-LL-319h) | selective drug sensitivity score (CCRF-CEM) | selective drug sensitivity score (ALL-SIL) | selective drug sensitivity score (PEER) | selective drug sensitivity score (P30-OHKUBO) | selective drug sensitivity score (DND-41) | selective drug sensitivity score (KASUMI-2) | selective drug sensitivity score (HAL-01) | selective drug sensitivity score (TMD5)
1 | CN1CC[C@H](c2c(O)cc(O)c3c(=O)cc(-c4ccccc4Cl)oc23)[C@H](O)C1 [Alvocidib] (top concentration 10000 nM) | -2 | -11 | -2.6 | -1 | -2.5 | -4.3 | -2.1 | 2.2 | 1.3 | -1.2 | -3.6 | -2.7 | 0.6 | -3.3 | -2.1 | 1.1 | -4.1 | -2.8 | -3.5 | -5.7
2 | CC(C)c1c(C(=O)Nc2ccccc2)c(-c2ccccc2)c(-c2ccc(F)cc2)n1CC[C@@H](O)C[C@@H](O)CC(=O)O [Atorvastatin] (top concentration 10000 nM) | 1 | -3.7 | -3.7 | 2.9 | -2.1 | -3 | -1.8 | -2.1 | -0.9 | 6.6 | -3.7 | -1 | 0.3 | 4.2 | 2 | -2.2 | 1.9 | -3.7 | -1.9 | -1.6
3 | Nc1ncn([C@@H]2O[C@H](CO)[C@@H](O)[C@H]2O)c(=O)n1 [Azacitidine] (top concentration 10000 nM) | 9.44 | -0.86 | 4.04 | 3.34 | 4.94 | 5.44 | 1.74 | -0.56 | 9.04 | 8.74 | 4.24 | 7.84 | 9.34 | 5.94 | 6.64 | 6.54 | 2.14 | -0.36 | 3.84 | -2.26
4 | Cc1cc(-c2nc(-c3ccc(OC(F)(F)F)cc3)no2)nn1Cc1ccnc(N2CCN(C3CC3)CC2)c1 [BAY_87-2243] (top concentration 1000 nM) | 17.1 | 25.2 | 30.1 | 28 | 25.1 | -8.66 | -3.16 | 14.9 | 8.64 | 6.34 | -6.36 | 2.54 | 6.34 | 10.1 | 27.4 | 6.44 | 6.84 | -8.66 | -0.66 | -1.16
5 | O=C(Nc1cccc(Nc2ncc(Br)c(NCCc3cnc[nH]3)n2)c1)N1CCCC1 [BX-912] (top concentration 10000 nM) | 7.96 | -7.04 | -1.34 | 3.36 | 6.56 | 8.26 | 6.16 | 9.66 | 9.36 | 12.4 | 3.06 | 12.7 | 9.96 | 9.36 | 10.6 | 10.9 | 2.56 | 5.86 | -3.64 | 2.06
6 | C=C(c1ccc(C(=O)O)cc1)c1cc2c(cc1C)C(C)(C)CCC2(C)C [Bexarotene] (top concentration 10000 nM) | -3.8 | -5.3 | -2.7 | -4 | 2.2 | 24 | -5.3 | -0.9 | 0.4 | 8 | 10.2 | -5.3 | -3.4 | -4.2 | -3.8 | -5.3 | -5.3 | -5.3 | -0.9 | 0.1
7 | Cn1cnc2c(F)c(Nc3ccc(Br)cc3F)c(C(=O)NOCCO)cc21 [Binimetinib] (top concentration 1000 nM) | 4.48 | -0.82 | -2.02 | -2.22 | -2.02 | 1.58 | 3.88 | -0.32 | 4.38 | 10.3 | 7.18 | 2.98 | 1.38 | -1.02 | 0.58 | -2.22 | -2.22 | -2.22 | 8.28 | 2.38
8 | COc1cc(N2CCC(N3CCN(C)CC3)CC2)ccc1Nc1ncc(Cl)c(Nc2ccccc2P(C)(C)=O)n1 [Brigatinib] (top concentration 1000 nM) | -3.34 | -3.34 | -3.34 | -2.44 | 0.36 | -3.34 | -2.04 | -1.14 | 3.16 | -3.34 | -3.34 | 3.26 | -3.34 | -3.34 | -3.34 | -3.34 | 7.16 | -3.24 | 6.06 | -2.04
9 | CC1=NN(c2ccc(C(=O)O)cc2)C(=O)C1=Cc1ccc(-c2cc(C)c(C)cc2[N+](=O)[O-])o1 [C646] (top concentration 25000 nM) | 4.44 | -2.06 | 0.94 | -2.06 | 0.24 | -0.86 | -0.16 | 3.14 | 3.84 | 2.44 | 4.64 | 11.7 | 1.74 | 6.14 | -0.66 | 3.94 | 2.94 | 15.1 | -2.06 | -2.06
